Assay results taken from publication doi:10.1101/208439v1 (biorxiv, 2017).
Read-outs that look alike come from different tables or passages of the source.

Key:
MLL2 Complex = MLL2 Complex (Homo sapiens, UniProt O14686); experiment: HotSpot [3H]SAM filter-binding methyltransferase assay; type: biochemical; set-up: gene KMT2D; complex assembled as MLL1; MLL2 here is KMT2D (NM_003482), His tag, E. coli; with WD repeat-containing protein 5; Set1/Ash2 histone methyltransferase complex subunit ASH2; Protein dpy-30 homolog
EZH1 Complex = molecular target: T1, EZH1 Complex (Homo sapiens, UniProt Q92800); experiment: as above; type: biochemical
T1 construct: five-member complex, Flag-EED, other subunits His-tagged, insect cells; with Zinc finger protein AEBP2; Polycomb protein EED; Polycomb protein SUZ12

PRMT8 = molecular target: T2, PRMT8 (Homo sapiens, UniProt Q9NR22); experiment: as above; type: biochemical
T2 construct: residues 61-394, N- and C-terminal His tags, E. coli

NSD2 SET domain = molecular target: T3, NSD2 SET domain (Homo sapiens, UniProt O96028); experiment: SPR Biacore 8K, single-cycle kinetics, […] model; type: binding
T3 construct: SET domain, residues 934-1241, N-terminal His tag, E. coli
T3 sequence (O96028 934-1241): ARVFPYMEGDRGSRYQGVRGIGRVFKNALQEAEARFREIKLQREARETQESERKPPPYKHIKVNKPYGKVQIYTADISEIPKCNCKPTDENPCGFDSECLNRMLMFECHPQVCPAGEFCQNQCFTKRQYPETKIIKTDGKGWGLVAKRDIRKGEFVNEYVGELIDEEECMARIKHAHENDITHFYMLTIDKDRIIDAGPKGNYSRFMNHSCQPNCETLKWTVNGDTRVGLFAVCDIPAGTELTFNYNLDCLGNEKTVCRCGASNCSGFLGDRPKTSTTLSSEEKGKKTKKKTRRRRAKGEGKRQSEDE

SMYD1 = molecular target: T4, SMYD1 (Homo sapiens, UniProt Q8NB12); experiment: biochemical
T4 sequence (Q8NB12 1-490): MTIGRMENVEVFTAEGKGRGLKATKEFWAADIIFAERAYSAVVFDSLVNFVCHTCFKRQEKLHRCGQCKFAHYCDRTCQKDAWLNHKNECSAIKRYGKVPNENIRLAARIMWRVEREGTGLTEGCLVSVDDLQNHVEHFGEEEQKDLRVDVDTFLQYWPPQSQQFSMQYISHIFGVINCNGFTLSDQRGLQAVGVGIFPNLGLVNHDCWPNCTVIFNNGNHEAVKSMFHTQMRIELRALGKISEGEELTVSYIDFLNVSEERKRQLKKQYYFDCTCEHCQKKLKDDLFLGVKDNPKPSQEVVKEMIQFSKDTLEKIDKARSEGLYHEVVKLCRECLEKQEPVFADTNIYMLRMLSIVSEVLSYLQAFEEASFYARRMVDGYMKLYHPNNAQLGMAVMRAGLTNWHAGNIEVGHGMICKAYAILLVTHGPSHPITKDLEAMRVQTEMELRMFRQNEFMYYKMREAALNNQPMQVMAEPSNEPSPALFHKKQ

PRMT7 = PRMT7 (Homo sapiens, UniProt Q9NVM4); experiment: biochemical; conditions: read-out: DA3003-1 IC50; inhibitor
PRDM9 = PRDM9 (Homo sapiens, UniProt Q9NQV7); conditions: read-out: DA3003-1 IC50; inhibitor
SET7/9 = molecular target: T5, SET7/9 (Homo sapiens, UniProt Q8WTS6); experiment: biochemical
T5 construct: gene SETD7
T5 sequence (Q8WTS6 1-366): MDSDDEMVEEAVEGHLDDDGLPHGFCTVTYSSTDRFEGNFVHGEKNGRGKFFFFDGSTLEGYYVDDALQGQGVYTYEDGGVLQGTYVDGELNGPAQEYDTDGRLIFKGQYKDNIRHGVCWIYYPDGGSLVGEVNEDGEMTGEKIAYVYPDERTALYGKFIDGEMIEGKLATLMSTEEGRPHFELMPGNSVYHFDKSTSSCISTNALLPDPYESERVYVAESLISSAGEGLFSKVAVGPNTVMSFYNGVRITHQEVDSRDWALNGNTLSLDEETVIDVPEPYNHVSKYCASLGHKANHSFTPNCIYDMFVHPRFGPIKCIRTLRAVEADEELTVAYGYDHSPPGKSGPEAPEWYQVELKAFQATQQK

MLL3 Complex = MLL3 Complex (Homo sapiens, UniProt Q8NEZ4); experiment: HotSpot [3H]SAM filter-binding methyltransferase assay; type: biochemical; set-up: gene KMT2C; complex assembled as MLL1; MLL3 His tag, E. coli; with WD repeat-containing protein 5; Set1/Ash2 histone methyltransferase complex subunit ASH2; Protein dpy-30 homolog; conditions: core histone, […] SAM, pH […] MgCl2, […] DTT, […] °C, single experiment
[1] = read-out: DA3003-1 IC50, inhibitor

Chain of MLL2 Complex (O14686 5319-5537): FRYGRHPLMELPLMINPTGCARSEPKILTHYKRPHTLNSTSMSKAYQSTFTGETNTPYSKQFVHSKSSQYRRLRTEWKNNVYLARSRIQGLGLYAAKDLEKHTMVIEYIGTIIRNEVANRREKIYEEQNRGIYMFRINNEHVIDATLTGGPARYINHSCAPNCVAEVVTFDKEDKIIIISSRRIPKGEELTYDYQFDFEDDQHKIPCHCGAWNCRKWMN
Chain of MLL2 Complex (Q15291 whole entry, further chain): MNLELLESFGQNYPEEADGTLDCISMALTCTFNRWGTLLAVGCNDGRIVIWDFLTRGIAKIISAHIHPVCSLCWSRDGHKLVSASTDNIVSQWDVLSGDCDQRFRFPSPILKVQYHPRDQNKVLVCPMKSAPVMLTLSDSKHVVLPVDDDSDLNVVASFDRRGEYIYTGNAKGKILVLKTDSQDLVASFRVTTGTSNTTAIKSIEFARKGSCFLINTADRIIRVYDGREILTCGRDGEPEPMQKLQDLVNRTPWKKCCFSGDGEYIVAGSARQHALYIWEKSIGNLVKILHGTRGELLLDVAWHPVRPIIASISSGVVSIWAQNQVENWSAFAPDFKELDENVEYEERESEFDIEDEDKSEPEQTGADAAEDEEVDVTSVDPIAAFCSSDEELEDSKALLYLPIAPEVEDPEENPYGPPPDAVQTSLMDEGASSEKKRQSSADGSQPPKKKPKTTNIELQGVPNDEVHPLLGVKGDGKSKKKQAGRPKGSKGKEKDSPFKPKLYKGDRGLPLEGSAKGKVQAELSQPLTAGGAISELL
Chain of MLL2 Complex (Q9UBL3 96-628, further chain): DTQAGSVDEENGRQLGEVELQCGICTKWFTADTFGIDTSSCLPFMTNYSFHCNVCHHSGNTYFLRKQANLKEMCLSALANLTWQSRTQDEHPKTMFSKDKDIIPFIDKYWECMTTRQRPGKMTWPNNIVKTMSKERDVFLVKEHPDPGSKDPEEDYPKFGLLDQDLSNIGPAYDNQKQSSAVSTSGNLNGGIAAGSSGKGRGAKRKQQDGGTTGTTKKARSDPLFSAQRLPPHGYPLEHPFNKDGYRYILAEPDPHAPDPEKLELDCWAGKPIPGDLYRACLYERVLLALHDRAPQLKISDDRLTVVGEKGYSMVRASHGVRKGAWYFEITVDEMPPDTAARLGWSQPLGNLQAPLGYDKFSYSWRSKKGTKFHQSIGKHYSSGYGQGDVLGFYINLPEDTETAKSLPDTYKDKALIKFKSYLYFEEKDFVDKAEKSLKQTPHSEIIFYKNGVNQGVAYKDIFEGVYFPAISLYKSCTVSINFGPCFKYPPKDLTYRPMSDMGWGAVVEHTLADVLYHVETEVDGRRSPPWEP
Chain of MLL2 Complex (Q9C005 whole entry, further chain): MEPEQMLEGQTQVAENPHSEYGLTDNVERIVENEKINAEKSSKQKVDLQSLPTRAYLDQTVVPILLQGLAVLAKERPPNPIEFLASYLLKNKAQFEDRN
T1 sequence (Q92800 2-747): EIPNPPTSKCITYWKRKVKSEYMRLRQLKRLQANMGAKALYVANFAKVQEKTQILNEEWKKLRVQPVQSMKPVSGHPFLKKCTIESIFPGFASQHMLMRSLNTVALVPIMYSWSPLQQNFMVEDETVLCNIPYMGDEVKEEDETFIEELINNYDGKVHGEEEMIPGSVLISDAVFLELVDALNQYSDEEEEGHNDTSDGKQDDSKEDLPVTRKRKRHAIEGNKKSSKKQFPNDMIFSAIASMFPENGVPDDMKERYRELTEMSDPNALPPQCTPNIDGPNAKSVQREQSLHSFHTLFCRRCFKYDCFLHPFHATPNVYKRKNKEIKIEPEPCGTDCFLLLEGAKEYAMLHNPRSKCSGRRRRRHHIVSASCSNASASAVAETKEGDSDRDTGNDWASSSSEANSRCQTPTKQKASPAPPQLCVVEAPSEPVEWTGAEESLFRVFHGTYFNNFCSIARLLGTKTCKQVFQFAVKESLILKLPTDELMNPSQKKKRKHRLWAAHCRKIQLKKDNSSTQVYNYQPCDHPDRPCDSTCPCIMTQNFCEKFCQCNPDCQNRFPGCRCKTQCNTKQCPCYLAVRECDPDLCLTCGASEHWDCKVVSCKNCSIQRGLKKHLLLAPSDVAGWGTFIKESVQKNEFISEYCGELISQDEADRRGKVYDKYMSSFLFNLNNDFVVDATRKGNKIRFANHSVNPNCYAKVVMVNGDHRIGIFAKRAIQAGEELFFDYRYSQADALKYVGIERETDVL
T1 sequence (O75530 2-441 partner): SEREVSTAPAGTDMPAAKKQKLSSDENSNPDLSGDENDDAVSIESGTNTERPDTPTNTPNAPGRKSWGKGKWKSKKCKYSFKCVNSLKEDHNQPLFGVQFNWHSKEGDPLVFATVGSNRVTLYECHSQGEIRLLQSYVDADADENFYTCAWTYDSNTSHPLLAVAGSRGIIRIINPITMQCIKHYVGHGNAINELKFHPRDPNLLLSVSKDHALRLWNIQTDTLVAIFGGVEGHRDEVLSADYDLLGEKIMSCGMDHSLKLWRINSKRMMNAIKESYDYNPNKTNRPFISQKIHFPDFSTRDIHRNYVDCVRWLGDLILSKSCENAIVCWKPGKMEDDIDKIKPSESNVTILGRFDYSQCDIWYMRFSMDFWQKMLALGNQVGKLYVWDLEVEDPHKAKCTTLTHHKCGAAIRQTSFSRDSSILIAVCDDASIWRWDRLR
T1 sequence (Q15022 2-739 partner): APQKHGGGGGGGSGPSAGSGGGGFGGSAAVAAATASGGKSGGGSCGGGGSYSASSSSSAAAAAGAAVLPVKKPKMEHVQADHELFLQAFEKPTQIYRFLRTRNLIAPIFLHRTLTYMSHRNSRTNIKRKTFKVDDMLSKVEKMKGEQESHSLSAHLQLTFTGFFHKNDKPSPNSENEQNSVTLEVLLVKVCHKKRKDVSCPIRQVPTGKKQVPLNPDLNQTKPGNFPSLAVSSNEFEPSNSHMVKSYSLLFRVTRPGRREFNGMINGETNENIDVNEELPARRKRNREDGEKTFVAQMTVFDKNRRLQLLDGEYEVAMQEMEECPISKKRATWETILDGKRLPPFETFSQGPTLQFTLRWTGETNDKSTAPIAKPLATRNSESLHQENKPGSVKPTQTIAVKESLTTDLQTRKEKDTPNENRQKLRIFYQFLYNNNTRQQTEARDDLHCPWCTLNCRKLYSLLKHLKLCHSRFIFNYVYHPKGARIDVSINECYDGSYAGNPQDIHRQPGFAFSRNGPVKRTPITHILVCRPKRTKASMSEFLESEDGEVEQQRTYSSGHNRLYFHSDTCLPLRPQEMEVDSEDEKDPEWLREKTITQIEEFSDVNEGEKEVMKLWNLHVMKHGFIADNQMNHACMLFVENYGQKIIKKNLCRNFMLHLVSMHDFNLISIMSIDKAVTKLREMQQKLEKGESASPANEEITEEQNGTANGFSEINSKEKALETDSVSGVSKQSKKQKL
T1 sequence (Q09028 2-425 partner): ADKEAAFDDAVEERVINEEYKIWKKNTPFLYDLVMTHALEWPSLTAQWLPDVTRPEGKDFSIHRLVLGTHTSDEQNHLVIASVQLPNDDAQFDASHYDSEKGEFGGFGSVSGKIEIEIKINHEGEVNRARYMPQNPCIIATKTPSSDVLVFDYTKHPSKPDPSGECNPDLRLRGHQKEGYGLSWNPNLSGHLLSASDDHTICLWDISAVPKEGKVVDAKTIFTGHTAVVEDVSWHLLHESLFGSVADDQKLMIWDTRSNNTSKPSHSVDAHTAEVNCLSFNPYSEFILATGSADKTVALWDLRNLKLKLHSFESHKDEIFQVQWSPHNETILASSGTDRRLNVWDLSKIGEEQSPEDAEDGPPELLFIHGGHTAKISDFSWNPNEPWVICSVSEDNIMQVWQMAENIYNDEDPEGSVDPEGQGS
T1 sequence (Q6ZN18 2-517 partner): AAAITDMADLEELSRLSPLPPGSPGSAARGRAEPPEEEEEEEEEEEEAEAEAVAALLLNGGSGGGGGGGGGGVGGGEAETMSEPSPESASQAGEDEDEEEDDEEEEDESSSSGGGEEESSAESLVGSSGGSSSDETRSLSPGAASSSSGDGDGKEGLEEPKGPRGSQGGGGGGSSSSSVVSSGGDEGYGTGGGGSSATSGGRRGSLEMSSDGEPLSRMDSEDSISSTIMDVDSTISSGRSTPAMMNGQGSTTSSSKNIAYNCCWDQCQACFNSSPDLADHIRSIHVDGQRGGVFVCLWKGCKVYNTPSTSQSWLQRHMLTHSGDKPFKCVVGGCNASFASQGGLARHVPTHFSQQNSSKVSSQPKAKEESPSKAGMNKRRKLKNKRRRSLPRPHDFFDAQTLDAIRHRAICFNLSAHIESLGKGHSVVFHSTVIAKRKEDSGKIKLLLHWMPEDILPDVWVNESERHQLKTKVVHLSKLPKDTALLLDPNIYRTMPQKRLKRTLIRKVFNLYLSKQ
T2 sequence (Q9NR22 61-394): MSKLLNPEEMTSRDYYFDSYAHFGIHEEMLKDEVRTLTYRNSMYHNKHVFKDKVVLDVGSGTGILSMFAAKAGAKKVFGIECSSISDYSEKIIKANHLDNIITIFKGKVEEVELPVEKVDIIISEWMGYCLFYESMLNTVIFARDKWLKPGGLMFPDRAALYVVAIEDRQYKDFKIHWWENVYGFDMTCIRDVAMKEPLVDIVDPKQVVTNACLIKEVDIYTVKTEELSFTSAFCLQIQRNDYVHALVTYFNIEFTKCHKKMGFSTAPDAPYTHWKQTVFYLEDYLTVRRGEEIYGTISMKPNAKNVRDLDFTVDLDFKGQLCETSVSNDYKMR
Chain of MLL3 Complex (Q9C005 whole entry): as the sequence (Q9C005 whole entry, further chain) above
Chain of MLL3 Complex (Q8NEZ4 4689-4911): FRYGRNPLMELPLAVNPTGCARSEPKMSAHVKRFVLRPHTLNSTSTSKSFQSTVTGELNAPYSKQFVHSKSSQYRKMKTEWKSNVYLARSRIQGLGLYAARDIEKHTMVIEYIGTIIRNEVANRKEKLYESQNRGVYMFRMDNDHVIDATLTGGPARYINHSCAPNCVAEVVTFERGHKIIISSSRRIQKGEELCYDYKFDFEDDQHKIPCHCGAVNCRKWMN
Chain of MLL3 Complex (Q9UBL3 96-628, further chain): as the sequence (Q9UBL3 96-628, further chain) above
Chain of MLL3 Complex (Q15291 whole entry, further chain): as the sequence (Q15291 whole entry, further chain) above

In the case of `CC1(C)CCC(CN2CCN(c3ccc(C(=O)NS(=O)(=O)c4ccc(NCC5CCOCC5)c([N+](=O)[O-])c4)c(Oc4cnc5[nH]ccc5c4)c3)CC2)=C(c2ccc(Cl)cc2)C1` [ABT-199], the IC50 (MLL2 Complex) is reported as 4.6 µM, the IC50 (EZH1 Complex) is reported as 66 µM and the IC50 (PRMT8) is reported as 34 µM. The Kd (NSD2 SET domain) was 8.3 µM.

In the case of `O=C1C(Cl)=C(NCCN2CCOCC2)C(=O)c2ncccc21` [DA3003-1], the IC50 (SMYD1; [1]) is reported as 1 µM, the IC50 (PRMT7) is reported as 0.42 µM and the IC50 (PRDM9) is reported as 0.37 µM. The IC50 (SET7/9; [1]) was 1.4 µM.

`COc1cccc(-n2nc(C(=O)O)cc2-c2ccc(C3CCCCC3)c(Cl)c2)c1` [TC LPA5 4] gave an IC50 (SMYD1) of 21 µM, an IC50 (MLL2 Complex; nucleosomes, […] SAM, pH […] MgCl2, […] DTT, […] °C, single experiment) of 18 µM and an IC50 (MLL3 Complex) of 63 µM. It also gave an IC50 (EZH1 Complex; core histone, […] SAM, pH […] EDTA, […] DTT, […] °C, single experiment) of 40 µM, an IC50 (SET7/9) of 52 µM and an IC50 (PRMT8; histone H4, […] SAM, pH […] MgCl2, […] DTT, […] °C, single experiment) of 71 µM. For the same molecule, the Kd (NSD2 SET domain; immobilized SET domain, pH […] °C, […] MgCl2, […] TCEP, […] DMSO) was 8.4 µM.
